# Assay results from patent publication US8518884B2, “Methods for treating atrial or ventricular arrhythmias by administering a G-protein alpha inhibitor” (Northwestern University, priority 2008, dated 2013).
# “Also recorded” adds a separate entry of the source. Ends that are not written are not given here.
# Experiments:
# [1] = tested on: M2R-stimulated Gi activation; experiment: Cholinergic (CCh) modulation of Ca2+ transients in isolated canine left atrial myocytes; format: cell-based
# Source text: (§1) Cardiac myocytes were isolated from the canine left atrium, loaded with fluo-4 (fluorescent Ca^2+ indicator), and electrically field-stimulated. […] The effects can be summarized quantitatively (SEE FIG. 12B).
# left atrium = experiment: Functional studies in pacing-induced CHF and control canine subjects: left atrial ERPs under autonomic manipulation; format: in vivo; conditions: both groups (CHF and control)
# Method: Canine subjects were divided into three groups. In group 1, CHF was induced by rapid ventricular pacing for 4 weeks (i.e. when the animals began to develop clinical heart failure. In group 2, pacing was performed for only 3 weeks. Group three were control canine subjects not subjected to rapid ventricular pacing. At the end of follow up period, high-density epicardial mapping was performed in the PVs, the PLA and the LAA. ERPs were obtained at multiple sites under the following conditions: a) baseline (BSL), b) left cervical vagal stimulation at 20 Hz (VS), c) beta-stimulation with isoproterenol (ISO), d) beta-blockade with propranolol (PROP) and e) beta-blockade+vagal stimulation (P+VS). VS caused significant mean ERP shortening in all three groups. […] PROP increased the VS effect on ERP in normal controls, but produced an attenuation of this effect in the CHF group (SEE FIG. 37). In this CHF model, after 4 weeks of pacing, an increased vagal effect on atrial refractoriness, an increased cumulative sympathetic effect, and a change in the sympatho-vagal interactions of the left atrium were observed. After 3 weeks of pacing, there is pronounced autonomic remodeling, with evidence of P as well S nerve upregulation in the PVs and left atrium. Both P and S upregulation are more pronounced in the PLA (and to a lesser extent in the PVs) than in the rest of the left atrium. While vagal responsiveness in the left atrium is unaltered at 3 weeks of pacing, it increases after 4 weeks of pacing. […] The autonomic remodeling becomes more pronounced with increasing duration of pacing. […] The increase in β1 binding is consistent with the increase in sympathetic innervation. […] The P upregulation noted in the left atrium in CHF is a compensatory response to S upregulation that occurs in response to CHF. […] However, since normal atria are more densely innervated with vagal fibers (than the ventricle) and also contain a significant amount of IKAch, the compensatory response is likely to be more vigorous in the atrium. The compensatory increase in vagal innervations, and resulting increase in IKAch, may contribute to increased AF substrate.
# [2] = tested on: βAR-stimulated Gs activation; experiment: β-adrenergic (ISO) modulation of Ca2+ transients in isolated canine left atrial myocytes; format: cell-based; conditions: 1 μM ISO (βAR saturating); within 20-30 seconds
# Source text: as §1
# [3] = tested on: posterior left atrium (PLA); experiment: Topical tropicaimide on the PLA: vagal stimulation (VS)-induced ERP shortening and AF inducibility; format: in vivo, canine
# Method: P nerve fibers, and related muscarinic receptors, are preferentially located in the PLA and selective cholinergic blockade in the PLA can be successfully performed to alter vagal AF substrate. PLA, PVs and left atrial appendage (LAA) in canine subjects were immunostained for S nerves (dopamine beta-hydroxylase), P nerves (acetylcholine esterase), and M2 receptors. Epicardial electrophysiologic mapping was performed in 7 additional canine subjects. The PLA was the most richly innervated with nerve bundles containing P and S fibers (PV=0.9±1, PLA=3.2±2.5, LAA=0.17±0.3/cm^2; p<0.001); nerve bundles were located in fibrofatty tissue as well as in surrounding myocardium. P predominated over S fibers within bundles (P/S: PV=4.4, PLA=7.2, LAA=5.8). M2 distribution was also most pronounced in the PLA (M2 stained cells/cm^2: PLA=17.8±8.3, PV=14.3±7.3, LAA=14.5±8, p=0.012). A particularly high concentration of P fibers was found in the ligament of Marshall (in the PLA). The ligament of Marshall could be traced back to a major branch of the left cervical vagus nerve. The nerve in turn innervates the PVs and the rest of the PLA. The PLA surface is stained for acetylcholinesterase. […] A small nerve branch (N) originating in the LOM is seen to innervate the LSPV. […] Cholinergic nerves from the PLA fat pad (PFP) can be seen to innervate the LIPV. […] 1% tropicaimide was then applied topically to the PLA.
# Using the canine model outlined below, 1% tropicaimide (a cholinergic blocker) was applied topically to the epicardial aspect of the PLA in canine subjects. Effective refractory periods were measured at multiple sites in the PLA a) at baseline, b) after left vagal stimulation, c) after tropicaimide application to the PLA and d) in the presence of vagal stimulation after tropicaimide application. […] The robust autonomic profile of the PLA and its role in AF (both in normal as well as diseased hearts), thereby making it an attractive target for autonomic manipulation by regional delivery of Gα C-terminal peptides. […]
# Gαo1 = Gαo1 minigene in the PLA: vagal and CCh induced ERP shortening; format: in vivo, dog; conditions: 10 mg minigene in PLA; day 3; compared to GαR dogs
# Method: This Example describes the use of a Gαo1 inhibitor to treat arrhythmia is a subject. In one animal, the following was performed: • Day 1: Open-chest mapping was performed via a left lateral thoracotomy. 10 mg of minigene expressing Gαo1 peptide was then injected in the PLA, followed by electroporation. • Day 3: A left lateral thoracotomy was performed again. The left vagus nerve was isolated. ERPs were measured in the PLA, PV and LAA in the absence and presence of vagal stimulation. Data from the above animal was compared with other dogs that received other minigenes (i.e. Gαi2, Gαi2+Gαo1 and GαR (see Aistrup et al, Heart Rhythm 2011)
# Gαi = experiment: cp-Gα peptide delivery to the PLA with electroporation/sonoporation: ERPs and AF inducibility with vagal stimulation; format: in vivo, canine
# Method: High-density epicardial mapping was performed in the PVs (2×2 electrodes), the PLA (7×3 electrodes) and the left atrial appendage (LAA) (7×3 electrodes) of canine subjects. Effective refractory periods (ERPs) were obtained at baseline and in response left cervical vagal stimulation (VS) (20 Hz). Cp-Gαi2 peptide (200-330 nM) was then applied topically to the epicardial aspect of the PLA in a canine subgroup. Cp-Gαi3 peptide (200-330 nM) was then applied topically to the epicardial aspect of the PLA of a second subgroup. Electroporation was performed after the application of peptide to enhance intracellular delivery of the peptide. ERPs were then re-measured in the presence and absence of VS.
# In canine subjects, high-density epicardial mapping was performed in the PVs (2×2 electrodes), the PLA (7×3 electrodes) and the left atrial appendage (LAA) (7×3 electrodes). Effective refractory periods (ERPs) were obtained at baseline and in response left cervical vagal stimulation (VS) (20 Hz). FLAG-tcp-Gα peptides (200 nM-3 μM of cp-Gαi1/2 (N=8 canine subjects), cp-Gαi3 (N=4 canine subjects), or random-sequence cp-GαoR peptide (N=3 canine subjects) were injected into the PLA epicardium of the canine subjects followed by either sonoporation or electroporation. In a subgroup of the canine subjects, sonoporation or electroporation alone was performed without introduction of cp-Gαi peptide. ERPs were then re-measured in the presence and absence of VS. In a separate set of control animals, ERPs were measured before and after the administration of systemic autonomic blockade with propranolol (0.2 mg/kg)+atropine (0.04 mg/kg).
# [4] = tested on: canine subject atrial cardiomyocytes; experiment: Toxicity by rapid automated tetrazolium dye based assay (MTT); format: cell-based; conditions: 5 μM peptide
# [5] = 200 nM-3 μM injected into PLA + sono/electroporation
# [6] = during VS, after peptide delivery into PLA
molecule,measurement,setting,value
"C[N+](C)(C)CCOC(N)=O [CCh, carbachol, reference compound]",effect on cellular Ca2+ transients,"[1]; 10 μM CCh (M2R saturating), field-stimulated myocytes",nearly eliminated
"CC(C)NCC(O)c1ccc(O)c(O)c1 (stereo not shown) [ISO, isoproterenol]",effect on mean ERP compared to PROP,left atrium,significantly shortened
same,effect on Ca2+ transients,[2],appreciably augmented
CCN(Cc1ccncc1)C(=O)C(CO)c1ccccc1 (stereo not shown) [tropicaimide],VS-induced ERP shortening,"[3]; 1% tropicaimide topically to PLA, PLA, PV and LAA",significantly attenuated; also recorded: either entirely eliminated or at least significantly attenuated
same,decrease in AF inducibility,"[3]; 1% tropicaimide topically to PLA, vagal stimulation",92%
same,AF induction with extrastimulus testing,"[3]; after 1% tropicaimide to PLA, presence or absence of vagal stimulation",could not induced
IANNLRGCGLY [Gαo1 minigene],CCh induced ERP shortening,Gαo1,significant reduction
same,vagal induced ERP shortening,Gαo1,significant reduction
"cp-Gαi2: chimeric peptide: cell-penetrating poly-arginine N-terminal sequence and C-terminal last 11 residues of Gαi (IKNNLKDCGLF; also: cell-penetrating poly-arginine N-terminal sequence, length not given here)",attenuation of CCh effect on Ca2+ transients,"[1]; 0.1-3 μM peptide superfusion 10-20 min, CCh",significantly attenuate
same,VS induced ERP shortening,"Gαi; 200-330 nM topical to PLA + electroporation, PLA, PV and LAA",significantly attenuated
"cp-Gαi peptide: cell-penetrating Gαi C-terminal peptide (cp-Gαi1/2 or cp-Gαi3), isoform not specified at the place (IKNNLKDCGLF; also: cell-penetrating sequence attached, not shown)",enhancement of cell viability,[4],~8%
same,VS-induced ERP shortening in the LAA,Gαi; [5],Elimination
same,VS-induced ERP shortening in the PLA,Gαi; [5],eliminated
same,ERP heterogeneity (coefficient of variation of all ERPs in PLA),Gαi; after peptide application,no change
same,AF inducibility in the presence of VS,Gαi; after peptide delivery to PLA,significantly decreased
same,reduction in AF inducibility during VS,Gαi; compared to vagal stimulation at baseline,69%
same,AF episodes >5 seconds in duration induced,Gαi; [6],10 episodes
same,AF inducibility index,Gαi; [6],0.05
same,atrial or ventricular arrhythmias induced by peptide injection,Gαi; with or without sono/electroporation,No atrial or ventricular arrhythmias were induced
